Assay results: EP1140925B1, “(3,4 DIHYDRO-2H-BENZO[1,4] OXAZINYL-METHYL)- 3-(1H-INDOL-3- YL)-ALKYL -AMINES” (Wyeth, priority 1999, dated 2000)
Read-outs that look alike come from different tables or passages of the source.

Experiments:
serotonin transporter = molecular target: T1, serotonin transporter (Rattus norvegicus, UniProt P31652); experiment: Serotonin transporter affinity, 3H-paroxetine binding to frontal cortical membranes; parameters: species or system Sprague-Dawley rats; settings: 3H-paroxetine 0.1 nM, head also allows % Inh. @.1 µM
T1 construct: frontal cortical membranes prepared from male Sprague-Dawley rats; from tissue; host or cells: frontal cortex membranes of male Sprague-Dawley rats
T1 sequence (P31652 whole entry): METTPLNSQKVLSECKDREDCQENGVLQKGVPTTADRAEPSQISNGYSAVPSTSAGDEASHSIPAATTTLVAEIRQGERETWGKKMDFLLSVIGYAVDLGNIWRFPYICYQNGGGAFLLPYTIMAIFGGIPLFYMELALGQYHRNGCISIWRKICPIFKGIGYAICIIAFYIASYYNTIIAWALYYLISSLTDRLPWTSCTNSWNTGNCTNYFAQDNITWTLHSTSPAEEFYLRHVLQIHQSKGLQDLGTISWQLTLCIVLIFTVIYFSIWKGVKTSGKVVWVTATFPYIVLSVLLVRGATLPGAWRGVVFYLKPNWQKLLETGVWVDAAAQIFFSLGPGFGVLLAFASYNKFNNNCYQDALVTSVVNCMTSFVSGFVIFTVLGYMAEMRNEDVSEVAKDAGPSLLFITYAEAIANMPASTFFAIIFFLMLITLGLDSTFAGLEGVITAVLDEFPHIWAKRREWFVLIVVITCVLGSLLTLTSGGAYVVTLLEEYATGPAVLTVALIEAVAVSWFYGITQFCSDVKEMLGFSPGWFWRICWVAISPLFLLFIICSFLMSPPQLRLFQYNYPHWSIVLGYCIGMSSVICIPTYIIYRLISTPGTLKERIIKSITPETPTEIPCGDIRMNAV
Procedure: Briefly, frontal cortical membranes prepared from male Sprague-Dawley rats were incubated with ^3H-paroxetine (0.1 nM) for 60 min at 25°C. All tubes also contained either vehicle, test compound (one to eight concentrations), or a saturating concentration of fluoxetine (10 µM) to define specific binding. All reactions were terminated by the addition of ice cold Tris buffer followed by rapid filtration using a Tom Tech filtration device to separate bound from free ^3H-paroxetine.

human 5-HT1A receptor = molecular target: T2, human 5-HT1A receptor (Homo sapiens, UniProt P08908); experiment: 5-HT1A receptor binding assay with [3H]8-OH-DPAT in CHO cell membranes; settings: [3H]8-OH-DPAT 1.5 nM, membranes of CHO cells expressing human 5-HT1A receptor
T2 construct: expressed in transfected cells
T2 sequence (P08908 1-422): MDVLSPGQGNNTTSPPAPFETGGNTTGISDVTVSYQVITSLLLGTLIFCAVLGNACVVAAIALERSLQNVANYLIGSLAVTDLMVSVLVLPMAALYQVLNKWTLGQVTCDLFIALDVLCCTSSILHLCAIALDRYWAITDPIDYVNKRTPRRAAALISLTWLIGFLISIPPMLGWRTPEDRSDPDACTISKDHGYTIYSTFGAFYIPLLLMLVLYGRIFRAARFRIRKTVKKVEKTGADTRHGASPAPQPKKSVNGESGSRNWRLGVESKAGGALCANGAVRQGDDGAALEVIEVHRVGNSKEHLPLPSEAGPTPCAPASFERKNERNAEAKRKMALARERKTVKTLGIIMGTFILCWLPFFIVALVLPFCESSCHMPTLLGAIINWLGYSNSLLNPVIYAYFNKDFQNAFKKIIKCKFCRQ
Procedure: A stable Chinese hamster ovary cell line expressing the human 5-HT1A receptor subtype (5H-HT1A.CHO cells) was employed throughout this procedure. Cells were maintained in DMEM supplemented with 10% fetal calf serum, non-essential amino acids and penicillin/ streptomycin.
Cells were grown to 95-100% confluency as a monolayer before membranes were harvested for binding studies. Cells were gently scraped from the culture plates, transferred to centrifuge tubes, and washed twice by centrifugation (at 2000 rpm for 10 min., 4°C) in buffer (50 mM Tris; pH 7.5). The resulting pellets were aliquoted and stored at -80•C until needed. On the day of assay, the cells were thawed on ice, and resuspended in buffer. Studies were conducted using [^3H]8-OH-DPAT as the radioligand. The binding assay was performed in 96 well microtiter plates in a final total volume of 250 µL of buffer. […] Non-specific binding was determined in the presence of 10 µM 5HT. Saturation analysis was conducted by using [^3H]8-OH-DPAT at concentrations ranging from 0.3-30 nM. Following a 30 minute incubation at room temperature, the reaction was terminated by the addition of ice cold buffer and rapid filtration using a M-96 Brandel Cell Harvester through a GF/B filter presoaked for 30 minutes in 0.5% polyethyleneimine.

[1] = read-out: ST (Ki, nM, % Inh. @.1 µM)

| Compound | Ki (serotonin transporter; ST (Ki, nM, % Inh. @.1 µM)) | Ki (human 5-HT1A receptor) | Ki (serotonin transporter; [1]) |
| --- | --- | --- | --- |
| Fc1ccc2[nH]cc(CCCNCC3CN(c4ccccc4)c4ccccc4O3)c2c1 (single isomer, unassigned; (+)) [Example 19] | 40 nM |  |  |
| Fc1ccc2[nH]cc(CCCNCC3CN(c4ccccc4)c4ccccc4O3)c2c1 (single isomer, unassigned; (-)) [Example 18] | 34 nM |  |  |
| Fc1ccc2[nH]cc(CCCNCC3COc4ccccc4N3)c2c1 (stereo not drawn) [Example 20, (3,4-Dihydro-2H-benzo[1,4]oxazin-3-yl-methyl)-[3-(5-fluoro-1H-indol-3-yl)propyl]-amine] |  | 12.3 nM |  |
| Fc1ccc2[nH]cc(CCCNCC3CNc4ccccc4O3)c2c1 (stereo not drawn) [Example 16, (3,4-Dihydro-2H-benzo[1,4]oxazin-2ylmethyl)-[3-(5-fluoro-1H-indol-3-yl)-propyl]-amine] |  | 11 nM | 16 nM |
| CC(C)CN1CC(CNCCCc2c[nH]c3ccc(F)cc23)Oc2ccccc21 (stereo not drawn) [Example 10] | 85 nM | 8.15 nM |  |
| CCN1CC(CNCCCc2c[nH]c3ccc(F)cc23)Oc2ccccc21 (stereo not drawn) [Example 13, [3-(5-Fluoro-1H-indol-3-yl)-propyl]-(4-ethyl-3,4-dihydro-2H-benzo[1,4]oxazin-2-yl-methyl)-amine] |  | 15.3 nM | 15 nM |
| c1ccc(N2CC(CNCCCc3c[nH]c4ccccc34)Oc3ccccc32)cc1 (stereo not drawn) [Example 7, [3-(1H-Indol-3-yl)-propyl]-4-phenyl-3,(4-dihydro-2H-benzo[1,4]oxazin-2-yl-methyl)-amine] |  | 30.2 nM |  |
| CN1CC(CNCCCc2c[nH]c3ccc(F)cc23)Oc2cc(Cl)ccc21 (stereo not drawn) [Example 15, (7-Chloro-4-methyl-3,4-dihydro-2H-benzo[1,4]oxazin-2ylmethyl)-[3-(5-fluoro-1H-indol-3-yl)-propyl]-amine] |  | 75.2 nM | 44 nM |
| c1ccc(CN2CC(CNCCCc3c[nH]c4ccccc34)Oc3ccccc32)cc1 (stereo not drawn) [Example 3, (4-Benzyl-3,4-dihydro-2H-benzo[1,4]oxazin-2ylmethyl)-[3-(1H-indo-3-yl)-propyl]-amine] | 21 nM | 7.8 nM |  |
| c1ccc2c(c1)NCC(CNCCCc1c[nH]c3ccccc13)O2 (stereo not drawn) [Example 1] |  | 6.9 nM | 79 nM |
| CCCN1CC(CNCCCc2c[nH]c3ccc(F)cc23)Oc2ccccc21 (stereo not drawn) [Example 14, [3-(5-Fluoro-1H-indol-3-yl)-propyl]-(4-propyl-3,4-dihydro-2H-benzo[1,4]oxazin-2-yl-methyl)-amine] |  | 16.8 nM | 26 nM |
| CN1CC(CNCCCc2c[nH]c3ccccc23)Oc2ccccc21 (stereo not drawn) [Example 2] | 112 nM | 5.9 nM |  |
| CN1CC(CNCCCc2c[nH]c3ccc(F)cc23)Oc2ccccc21 (stereo not drawn) [Example 5, [3-(5-Fluoro-1H-indol-3-yl)-propyl]-(4-methyl-3,4-dihydro-2H-benzo[1,4]oxazin-2-yl-methyl)-amine] |  | 8.5 nM | 5.7 nM |
| Fc1ccc2[nH]cc(CCCNCC3CN(c4ccccc4)c4ccccc4O3)c2c1 (stereo not drawn) [Example 11, [3-(5-Fluoro-1H-indol-3-yl)-propyl]-(4-phenyl-3,4-dihydro-2H-benzo[1,4]oxazin-2-yl-methyl)-amine] |  |  | 43 nM |
| COc1ccc2c(c1)OC(CNCCCc1c[nH]c3ccc(F)cc13)CN2 (stereo not drawn) [Example 17] |  | 103 nM | 15 nM |
| CC(C)N1CC(CNCCCc2c[nH]c3ccc(F)cc23)Oc2ccccc21 (stereo not drawn) [Example 8, [3-(5-Fluoro-1H-indol-3-yl)-propyl]-(4-isopropyl-3,4-dihydro-2H-benzo[1,4]oxazin-2yl-methyl)-amine] |  | 2.8 nM | 25 nM |
